test system: oval-leafed pondweed; test: Test Example 1: herbicidal activity, application before weed generation under submerged conditions (Table 16, symbol C); format: in vivo, oval-leafed pondweed (Monochoria vaginalis); settings: 320 g/ha applied herbicide
How it was run: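 Alluvial soil was flooded to 4 cm depth, weed seeds were sown mixed and 2.5-leaf rice seedlings were transplanted. On sowing day, the compound's emulsion, diluted in water to a set dose, was applied to the water surface. Plants grew at 25–30 °C and were scored 0–5 after three weeks.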

Compound	Herbicidal effect on C: oval-leafed pondweed (grade 0-5)
CCCC(=O)Oc1c(C)nn(C)c(=O)c1-c1c(-c2ccc3c(c2)OCCO3)sc2ccccc12 [1-090]	5 (Herbicidal rate of 90% or more (almost completely withered))
COC(=O)Oc1c(C)nn(C)c(=O)c1-c1c(-c2ccc3c(c2)OCCO3)sc2ccccc12 [1-091]	4 (Herbicidal rate of 70% or more and less than 90%)
Cc1nn(C)c(=O)c(-c2c(-c3ccc4c(c3)OCCO4)sc3ccccc23)c1OC(=O)SC(C)(C)C [1-092]	2 (Herbicidal rate of 20% or more and less than 40%)

test system: Japanese bulrush; test: Test Example 2: herbicidal activity, application during weed generation under submerged conditions (Table 17, symbol B); format: in vivo, Japanese bulrush (Schoenoplectus juncoides); settings: AAH 320 g/ha; application during weed generation, submerged conditions
How it was run: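 Herbicide emulsion, diluted with water to the chosen amount, is applied onto 4 cm floodwater over alluvial soil where the weeds were co-sown and raised at 25–30° C. Application timing: 1–2 leaves. Assessment: three weeks afterwards.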

Compound	herbicidal effect rating, B: Japanese bulrush
CCCC(=O)Oc1c(C)nn(C)c(=O)c1-c1c(-c2ccc3c(c2)OCCO3)sc2ccccc12 [1-090]	3 (Herbicidal rate of 40% or more and less than 70%)
COC(=O)Oc1c(C)nn(C)c(=O)c1-c1c(-c2ccc3c(c2)OCCO3)sc2ccccc12 [1-091]	4 (Herbicidal rate of 70% or more and less than 90%)
Cc1nn(C)c(=O)c(-c2c(-c3ccc4c(c3)OCCO4)sc3ccccc23)c1OC(=O)SC(C)(C)C [1-092]	1 (Herbicidal rate of 5% or more and less than 20%)

test system: southern crabgrass; test: Test Example 4: herbicidal effect by soil treatment (Table 19, symbol F); format: in vivo, southern crabgrass (Digitaria ciliaris); settings: amount of applied herbicide 320 g/ha
How it was run: (§1)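 Three weeks of greenhouse growth at 25° C. to 30° C. followed a uniform surface spray of water-diluted emulsion at a predetermined herbicide amount. Seeds had been sown beforehand under about 1.5 cm of sterilized diluvial soil. Grading followed criteria set out in an earlier test.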

Compound	herbicidal effect rating, F: southern crabgrass
CCCC(=O)Oc1c(C)nn(C)c(=O)c1-c1c(-c2ccc3c(c2)OCCO3)sc2ccccc12 [1-090]	0 (Herbicidal rate of 5% or less (almost no effect))
COC(=O)Oc1c(C)nn(C)c(=O)c1-c1c(-c2ccc3c(c2)OCCO3)sc2ccccc12 [1-091]	3 (Herbicidal rate of 40% or more and less than 70%)
Cc1nn(C)c(=O)c(-c2c(-c3ccc4c(c3)OCCO4)sc3ccccc23)c1OC(=O)SC(C)(C)C [1-092]	0 (Herbicidal rate of 5% or less (almost no effect))

test system: green foxtail; test: Test Example 4: herbicidal effect by soil treatment (Table 19, symbol G); format: in vivo, green foxtail (Setaria viridis); settings: amount of applied herbicide 320 g/ha
How it was run: as §1

Compound	herbicidal effect rating, G: green foxtail
CCCC(=O)Oc1c(C)nn(C)c(=O)c1-c1c(-c2ccc3c(c2)OCCO3)sc2ccccc12 [1-090]	3 (Herbicidal rate of 40% or more and less than 70%)
COC(=O)Oc1c(C)nn(C)c(=O)c1-c1c(-c2ccc3c(c2)OCCO3)sc2ccccc12 [1-091]	5 (Herbicidal rate of 90% or more (almost completely withered))
Cc1nn(C)c(=O)c(-c2c(-c3ccc4c(c3)OCCO4)sc3ccccc23)c1OC(=O)SC(C)(C)C [1-092]	0 (Herbicidal rate of 5% or less (almost no effect))

test system: barnyard grass; test: Test Example 4: herbicidal effect by soil treatment (Table 19, symbol H); format: in vivo, barnyard grass (Echinochloa crus-galli); settings: amount of applied herbicide 320 g/ha
How it was run: as §1

Compound	herbicidal effect rating, H: barnyard grass
CCCC(=O)Oc1c(C)nn(C)c(=O)c1-c1c(-c2ccc3c(c2)OCCO3)sc2ccccc12 [1-090]	1 (Herbicidal rate of 5% or more and less than 20%)
COC(=O)Oc1c(C)nn(C)c(=O)c1-c1c(-c2ccc3c(c2)OCCO3)sc2ccccc12 [1-091]	5 (Herbicidal rate of 90% or more (almost completely withered))
Cc1nn(C)c(=O)c(-c2c(-c3ccc4c(c3)OCCO4)sc3ccccc23)c1OC(=O)SC(C)(C)C [1-092]	0 (Herbicidal rate of 5% or less (almost no effect))

test system: wild oat; test: Test Example 4: herbicidal effect by soil treatment (Table 19, symbol I); format: in vivo, wild oat (Avena fatua); settings: amount of applied herbicide 320 g/ha
How it was run: as §1

Compound	herbicidal effect rating, I: wild oat
CCCC(=O)Oc1c(C)nn(C)c(=O)c1-c1c(-c2ccc3c(c2)OCCO3)sc2ccccc12 [1-090]	0 (Herbicidal rate of 5% or less (almost no effect))
COC(=O)Oc1c(C)nn(C)c(=O)c1-c1c(-c2ccc3c(c2)OCCO3)sc2ccccc12 [1-091]	0 (Herbicidal rate of 5% or less (almost no effect))
Cc1nn(C)c(=O)c(-c2c(-c3ccc4c(c3)OCCO4)sc3ccccc23)c1OC(=O)SC(C)(C)C [1-092]	0 (Herbicidal rate of 5% or less (almost no effect))

test system: blackgrass; test: Test Example 4: herbicidal effect by soil treatment (Table 19, symbol J); format: in vivo, blackgrass (Alopecurus myosuroides); settings: amount of applied herbicide 320 g/ha
How it was run: as §1

Compound	herbicidal effect rating, J: blackgrass
CCCC(=O)Oc1c(C)nn(C)c(=O)c1-c1c(-c2ccc3c(c2)OCCO3)sc2ccccc12 [1-090]	0 (Herbicidal rate of 5% or less (almost no effect))
COC(=O)Oc1c(C)nn(C)c(=O)c1-c1c(-c2ccc3c(c2)OCCO3)sc2ccccc12 [1-091]	0 (Herbicidal rate of 5% or less (almost no effect))
Cc1nn(C)c(=O)c(-c2c(-c3ccc4c(c3)OCCO4)sc3ccccc23)c1OC(=O)SC(C)(C)C [1-092]	0 (Herbicidal rate of 5% or less (almost no effect))

test system: velvetleaf; test: Test Example 4: herbicidal effect by soil treatment (Table 19, symbol M); format: in vivo, velvetleaf (Abutilon theophrasti); settings: amount of applied herbicide 320 g/ha
How it was run: as §1

Compound	herbicidal effect rating, M: velvetleaf
CCCC(=O)Oc1c(C)nn(C)c(=O)c1-c1c(-c2ccc3c(c2)OCCO3)sc2ccccc12 [1-090]	0 (Herbicidal rate of 5% or less (almost no effect))
COC(=O)Oc1c(C)nn(C)c(=O)c1-c1c(-c2ccc3c(c2)OCCO3)sc2ccccc12 [1-091]	5 (Herbicidal rate of 90% or more (almost completely withered))
Cc1nn(C)c(=O)c(-c2c(-c3ccc4c(c3)OCCO4)sc3ccccc23)c1OC(=O)SC(C)(C)C [1-092]	0 (Herbicidal rate of 5% or less (almost no effect))

test system: lambsquarters; test: Test Example 4: herbicidal effect by soil treatment (Table 19, symbol O); format: in vivo, lambsquarters (Chenopodium album); settings: amount of applied herbicide 320 g/ha
How it was run: as §1

Compound	herbicidal effect rating, O: lambsquarters
CCCC(=O)Oc1c(C)nn(C)c(=O)c1-c1c(-c2ccc3c(c2)OCCO3)sc2ccccc12 [1-090]	2 (Herbicidal rate of 20% or more and less than 40%)
COC(=O)Oc1c(C)nn(C)c(=O)c1-c1c(-c2ccc3c(c2)OCCO3)sc2ccccc12 [1-091]	4 (Herbicidal rate of 70% or more and less than 90%)
Cc1nn(C)c(=O)c(-c2c(-c3ccc4c(c3)OCCO4)sc3ccccc23)c1OC(=O)SC(C)(C)C [1-092]	0 (Herbicidal rate of 5% or less (almost no effect))

test system: chickweed; test: Test Example 4: herbicidal effect by soil treatment (Table 19, symbol P); format: in vivo, common chickweed (Stellaria media); settings: amount of applied herbicide 320 g/ha
How it was run: as §1

Compound	herbicidal effect rating, P: chickweed
CCCC(=O)Oc1c(C)nn(C)c(=O)c1-c1c(-c2ccc3c(c2)OCCO3)sc2ccccc12 [1-090]	4 (Herbicidal rate of 70% or more and less than 90%)
COC(=O)Oc1c(C)nn(C)c(=O)c1-c1c(-c2ccc3c(c2)OCCO3)sc2ccccc12 [1-091]	5 (Herbicidal rate of 90% or more (almost completely withered))
Cc1nn(C)c(=O)c(-c2c(-c3ccc4c(c3)OCCO4)sc3ccccc23)c1OC(=O)SC(C)(C)C [1-092]	0 (Herbicidal rate of 5% or less (almost no effect))

test system: persian speedwell; test: Test Example 4: herbicidal effect by soil treatment (Table 19, symbol R); format: in vivo, Persian speedwell (Veronica persica); settings: amount of applied herbicide 320 g/ha
How it was run: as §1

Compound	herbicidal effect rating, R: persian speedwell
CCCC(=O)Oc1c(C)nn(C)c(=O)c1-c1c(-c2ccc3c(c2)OCCO3)sc2ccccc12 [1-090]	5 (Herbicidal rate of 90% or more (almost completely withered))
COC(=O)Oc1c(C)nn(C)c(=O)c1-c1c(-c2ccc3c(c2)OCCO3)sc2ccccc12 [1-091]	5 (Herbicidal rate of 90% or more (almost completely withered))
Cc1nn(C)c(=O)c(-c2c(-c3ccc4c(c3)OCCO4)sc3ccccc23)c1OC(=O)SC(C)(C)C [1-092]	4 (Herbicidal rate of 70% or more and less than 90%)

test system: Italian ryegrass; test: Test Example 5: herbicidal effect by foliage application, plastic box (Table 20, symbol K); format: in vivo, Italian ryegrass (Lolium multiflorum); settings: foliage application, AAH 320 g/ha, three weeks after application
How it was run: (§2)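 Plants sown in sterilized diluvial soil and grown 14 days in a greenhouse at 25° C to 30° C, then sprayed on the foliage with the compound's emulsion diluted in water to a predetermined herbicide amount. Injury to weeds and crops scored three weeks after application on a visual rating scale.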

Compound	K: Italian ryegrass, herbicidal effect
CCCC(=O)Oc1c(C)nn(C)c(=O)c1-c1c(-c2ccc3c(c2)OCCO3)sc2ccccc12 [1-090]	3 (Herbicidal rate of 40% or more and less than 70%)
COC(=O)Oc1c(C)nn(C)c(=O)c1-c1c(-c2ccc3c(c2)OCCO3)sc2ccccc12 [1-091]	4 (Herbicidal rate of 70% or more and less than 90%)
Cc1nn(C)c(=O)c(-c2c(-c3ccc4c(c3)OCCO4)sc3ccccc23)c1OC(=O)SC(C)(C)C [1-092]	0 (Herbicidal rate of 5% or less (almost no effect))

test system: windgrass; test: Test Example 5: herbicidal effect by foliage application, plastic box (Table 20, symbol L); format: in vivo, windgrass (Apera spica-venti); settings: foliage application, AAH 320 g/ha, three weeks after application
How it was run: as §2

Compound	L: windgrass, herbicidal effect
CCCC(=O)Oc1c(C)nn(C)c(=O)c1-c1c(-c2ccc3c(c2)OCCO3)sc2ccccc12 [1-090]	0 (Herbicidal rate of 5% or less (almost no effect))
COC(=O)Oc1c(C)nn(C)c(=O)c1-c1c(-c2ccc3c(c2)OCCO3)sc2ccccc12 [1-091]	1 (Herbicidal rate of 5% or more and less than 20%)
Cc1nn(C)c(=O)c(-c2c(-c3ccc4c(c3)OCCO4)sc3ccccc23)c1OC(=O)SC(C)(C)C [1-092]	0 (Herbicidal rate of 5% or less (almost no effect))

test system: velvetleaf; test: Test Example 5: herbicidal effect by foliage application, plastic box (Table 20, symbol M); format: in vivo, velvetleaf (Abutilon theophrasti); settings: foliage application, AAH 320 g/ha, three weeks after application
How it was run: as §2

Compound	M: velvetleaf, herbicidal effect
CCCC(=O)Oc1c(C)nn(C)c(=O)c1-c1c(-c2ccc3c(c2)OCCO3)sc2ccccc12 [1-090]	4 (Herbicidal rate of 70% or more and less than 90%)
COC(=O)Oc1c(C)nn(C)c(=O)c1-c1c(-c2ccc3c(c2)OCCO3)sc2ccccc12 [1-091]	5 (Herbicidal rate of 90% or more (almost completely withered))
Cc1nn(C)c(=O)c(-c2c(-c3ccc4c(c3)OCCO4)sc3ccccc23)c1OC(=O)SC(C)(C)C [1-092]	5 (Herbicidal rate of 90% or more (almost completely withered))

test system: redroot pigweed; test: Test Example 5: herbicidal effect by foliage application, plastic box (Table 20, symbol N); format: in vivo, redroot pigweed (Amaranthus retroflexus); settings: foliage application, AAH 320 g/ha, three weeks after application
How it was run: as §2

Compound	N: redroot pigweed, herbicidal effect
CCCC(=O)Oc1c(C)nn(C)c(=O)c1-c1c(-c2ccc3c(c2)OCCO3)sc2ccccc12 [1-090]	0 (Herbicidal rate of 5% or less (almost no effect))
COC(=O)Oc1c(C)nn(C)c(=O)c1-c1c(-c2ccc3c(c2)OCCO3)sc2ccccc12 [1-091]	5 (Herbicidal rate of 90% or more (almost completely withered))
Cc1nn(C)c(=O)c(-c2c(-c3ccc4c(c3)OCCO4)sc3ccccc23)c1OC(=O)SC(C)(C)C [1-092]	0 (Herbicidal rate of 5% or less (almost no effect))

test system: lambsquarters; test: Test Example 5: herbicidal effect by foliage application, plastic box (Table 20, symbol O); format: in vivo, lambsquarters (Chenopodium album); settings: foliage application, AAH 320 g/ha, three weeks after application
How it was run: as §2

Compound	O: lambsquarters, herbicidal effect
CCCC(=O)Oc1c(C)nn(C)c(=O)c1-c1c(-c2ccc3c(c2)OCCO3)sc2ccccc12 [1-090]	2 (Herbicidal rate of 20% or more and less than 40%)
COC(=O)Oc1c(C)nn(C)c(=O)c1-c1c(-c2ccc3c(c2)OCCO3)sc2ccccc12 [1-091]	4 (Herbicidal rate of 70% or more and less than 90%)
Cc1nn(C)c(=O)c(-c2c(-c3ccc4c(c3)OCCO4)sc3ccccc23)c1OC(=O)SC(C)(C)C [1-092]	3 (Herbicidal rate of 40% or more and less than 70%)

test system: chickweed; test: Test Example 5: herbicidal effect by foliage application, plastic box (Table 20, symbol P); format: in vivo, common chickweed (Stellaria media); settings: foliage application, AAH 320 g/ha, three weeks after application
How it was run: as §2

Compound	P: chickweed, herbicidal effect
CCCC(=O)Oc1c(C)nn(C)c(=O)c1-c1c(-c2ccc3c(c2)OCCO3)sc2ccccc12 [1-090]	4 (Herbicidal rate of 70% or more and less than 90%)
COC(=O)Oc1c(C)nn(C)c(=O)c1-c1c(-c2ccc3c(c2)OCCO3)sc2ccccc12 [1-091]	5 (Herbicidal rate of 90% or more (almost completely withered))
Cc1nn(C)c(=O)c(-c2c(-c3ccc4c(c3)OCCO4)sc3ccccc23)c1OC(=O)SC(C)(C)C [1-092]	5 (Herbicidal rate of 90% or more (almost completely withered))

Reference: patent publication US20230085307A1, “PYRIDAZINONE COMPOUND AND HERBICIDE” (NISSAN CHEMICAL CORPORATION, priority 2019, published 2023)
